# Assay results reported in PubChem BioAssay (NCI).
#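 Growth conditions: 96-well plates. Treatment: test compound, 48 hours, 5 concentrations. Analysis: linear interpolation between bracketing concentrations; unreached endpoints set to highest concentration. At the TGI there is no net growth.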
# How the values were obtained:
# Test in all cases: NCI-60 cell line screen, 48 h
# [1] = system: HOP-62 NSCLC
# [2] = system: T-47D breast
# [3] = system: NCI-H522 lung
# [4] = system: DU-145 prostate
# [5] = system: ACHN renal
# [6] = system: MOLT-4 leukemia
# [7] = system: SF-539 CNS
# [8] = system: EKVX NSCLC
# [9] = system: KM12 colon
# [10] = system: LOX IMVI melanoma
# [11] = system: A549 NSCLC
# [12] = system: U251 CNS
# [13] = system: NCI-H460 lung
# [14] = system: SF-295 CNS
# [15] = system: SNB-75 CNS
# [16] = system: MDA-N
# [17] = system: SK-MEL-2 melanoma
# [18] = system: HCC-2998 colon
# [19] = system: SF-268 CNS
# [20] = system: MDA-MB-231 breast
# [21] = system: K-562 leukemia
# [22] = system: NCI-H23 lung
# [23] = system: HCT-15 colon
# [24] = system: MCF7 breast
# [25] = system: A498 renal
# [26] = system: UACC-62 melanoma
# [27] = system: HOP-92 NSCLC
# [28] = system: OVCAR-8 ovarian
# [29] = system: SNB-19 CNS
# [30] = system: SK-OV-3 ovarian
# [31] = system: SK-MEL-28 melanoma
# [32] = system: SN12C renal
# [33] = system: OVCAR-3 ovarian
# [34] = system: IGROV1 ovarian
# [35] = system: NCI/ADR-RES ovarian
# [36] = system: CAKI-1 renal
# [37] = system: CCRF-CEM leukemia
# [38] = system: BT-549 breast
# [39] = system: 786-0 renal
# [40] = system: UACC-257 melanoma
# [41] = system: TK-10 renal
# [42] = system: RPMI-8226 leukemia
# [43] = system: HCT-116 colon
# [44] = system: RXF 393 renal
# [45] = system: HT29 colon
# [46] = system: HS 578T breast
# [47] = system: UO-31 renal
# [48] = system: M14 melanoma
# [49] = system: OVCAR-4 ovarian
# [50] = system: MALME-3M melanoma
# [51] = system: PC-3 prostate
# [52] = system: SK-MEL-5 melanoma
# [53] = system: OVCAR-5 ovarian
# [54] = system: HL-60(TB) leukemia
# [55] = system: COLO 205 colon
# [56] = system: NCI-H226 lung
# [57] = system: MDA-MB-435
# [58] = system: SW-620 colon
# [59] = system: SR leukemia
smiles,measurement,setting,value
NC(=O)Cc1nc2c(=O)[nH]cnc2n1C1OC(CO)C(O)C1O (stereo unspecified),TGI,[1],> 100 µM
same,TGI,[2],> 100 µM
same,TGI,[3],> 100 µM
same,TGI,[4],> 100 µM
same,TGI,[5],> 100 µM
same,TGI,[6],> 100 µM
same,TGI,[7],> 100 µM
same,TGI,[8],> 100 µM
same,TGI,[9],> 100 µM
same,TGI,[10],> 100 µM
same,TGI,[11],> 100 µM
same,TGI,[12],> 100 µM
same,TGI,[13],> 100 µM
same,TGI,[14],> 100 µM
same,TGI,[15],> 100 µM
same,TGI,[16],> 100 µM
same,TGI,[17],> 100 µM
same,TGI,[18],> 100 µM
same,TGI,[19],> 100 µM
same,TGI,[20],> 100 µM
same,TGI,[21],> 100 µM
same,TGI,[22],> 100 µM
same,TGI,[23],> 100 µM
same,TGI,[24],> 100 µM
same,TGI,[25],> 100 µM
same,TGI,[26],> 100 µM
same,TGI,[27],> 100 µM
same,TGI,[28],> 100 µM
same,TGI,[29],> 100 µM
same,TGI,[30],> 100 µM
same,TGI,[31],> 100 µM
same,TGI,[32],> 100 µM
same,TGI,[33],> 100 µM
same,TGI,[34],> 100 µM
same,TGI,[35],> 100 µM
same,TGI,[36],> 100 µM
same,TGI,[37],> 100 µM
same,TGI,[38],> 100 µM
same,TGI,[39],> 100 µM
same,TGI,[40],> 100 µM
same,TGI,[41],> 100 µM
same,TGI,[42],> 100 µM
same,TGI,[43],> 100 µM
same,TGI,[44],> 100 µM
same,TGI,[45],> 100 µM
same,TGI,[46],> 100 µM
same,TGI,[47],> 100 µM
same,TGI,[48],> 100 µM
same,TGI,[49],> 100 µM
same,TGI,[50],> 100 µM
same,TGI,[51],> 100 µM
same,TGI,[52],> 100 µM
same,TGI,[53],> 100 µM
same,TGI,[54],> 100 µM
same,TGI,[55],> 100 µM
same,TGI,[56],> 100 µM
same,TGI,[57],> 100 µM
same,TGI,[58],> 100 µM
O=[N+]([O-])c1ccc(C(Nc2ccccc2)c2ccc3cccnc3c2O)cc1 (stereo unspecified),TGI,[1],> 100 µM
same,TGI,[2],44.4 µM
same,TGI,[3],28.6 µM
same,TGI,[4],> 100 µM
same,TGI,[5],> 100 µM
same,TGI,[7],21.1 µM
same,TGI,[8],> 54.6 µM
same,TGI,[9],> 100 µM
same,TGI,[10],61 µM
same,TGI,[11],> 100 µM
same,TGI,[12],25.2 µM
same,TGI,[13],> 60.6 µM
same,TGI,[14],> 100 µM
same,TGI,[15],55.5 µM
same,TGI,[16],> 100 µM
same,TGI,[17],> 100 µM
same,TGI,[18],97.7 µM
same,TGI,[19],> 52.7 µM
same,TGI,[20],59.9 µM
same,TGI,[21],> 57.4 µM
same,TGI,[22],> 100 µM
same,TGI,[23],> 100 µM
same,TGI,[24],> 75.6 µM
same,TGI,[25],> 100 µM
same,TGI,[26],35.8 µM
same,TGI,[27],72.9 µM
same,TGI,[28],52.3 µM
same,TGI,[29],> 100 µM
same,TGI,[30],> 100 µM
same,TGI,[31],> 100 µM
same,TGI,[32],> 56.2 µM
same,TGI,[33],33.6 µM
same,TGI,[34],> 100 µM
same,TGI,[35],> 69.3 µM
same,TGI,[36],> 62.3 µM
same,TGI,[37],> 22.2 µM
same,TGI,[38],> 70.3 µM
same,TGI,[39],26.1 µM
same,TGI,[40],42.8 µM
same,TGI,[41],68.8 µM
same,TGI,[42],38.5 µM
same,TGI,[43],> 75.3 µM
same,TGI,[44],24.6 µM
same,TGI,[45],> 100 µM
same,TGI,[46],> 71.7 µM
same,TGI,[47],32.3 µM
same,TGI,[48],> 74.4 µM
same,TGI,[49],47.7 µM
same,TGI,[50],> 65.2 µM
same,TGI,[51],> 87.2 µM
same,TGI,[52],22.3 µM
same,TGI,[53],> 100 µM
same,TGI,[54],13.4 µM
same,TGI,[55],45.6 µM
same,TGI,[56],> 27.7 µM
same,TGI,[57],> 78 µM
same,TGI,[58],> 100 µM
O=c1cc(NCc2ccncc2)[nH]c(=O)[nH]1,TGI,[1],> 100 µM
same,TGI,[2],> 100 µM
same,TGI,[3],> 100 µM
same,TGI,[5],> 100 µM
same,TGI,[6],> 100 µM
same,TGI,[7],> 100 µM
same,TGI,[8],> 100 µM
same,TGI,[9],> 100 µM
same,TGI,[10],> 100 µM
same,TGI,[11],> 100 µM
same,TGI,[12],> 100 µM
same,TGI,[13],> 100 µM
same,TGI,[14],> 100 µM
same,TGI,[15],> 100 µM
same,TGI,[16],> 100 µM
same,TGI,[17],> 100 µM
same,TGI,[18],> 100 µM
same,TGI,[19],> 100 µM
same,TGI,[20],> 100 µM
same,TGI,[21],> 100 µM
same,TGI,[22],> 100 µM
same,TGI,[23],> 100 µM
same,TGI,[24],> 100 µM
same,TGI,[25],> 100 µM
same,TGI,[26],> 100 µM
same,TGI,[27],> 100 µM
same,TGI,[28],> 100 µM
same,TGI,[29],> 100 µM
same,TGI,[30],> 100 µM
same,TGI,[31],> 100 µM
same,TGI,[32],> 100 µM
same,TGI,[33],> 100 µM
same,TGI,[34],> 100 µM
same,TGI,[35],> 100 µM
same,TGI,[36],> 100 µM
same,TGI,[37],> 100 µM
same,TGI,[38],> 100 µM
same,TGI,[39],> 100 µM
same,TGI,[40],> 100 µM
same,TGI,[41],> 100 µM
same,TGI,[42],> 100 µM
same,TGI,[43],> 100 µM
same,TGI,[44],> 100 µM
same,TGI,[59],> 100 µM
same,TGI,[45],> 100 µM
same,TGI,[46],> 100 µM
same,TGI,[47],> 100 µM
same,TGI,[48],> 100 µM
same,TGI,[49],> 100 µM
same,TGI,[50],> 100 µM
same,TGI,[51],> 100 µM
same,TGI,[52],> 100 µM
same,TGI,[53],> 100 µM
same,TGI,[54],> 100 µM
same,TGI,[55],> 100 µM
same,TGI,[56],> 100 µM
same,TGI,[57],> 100 µM
same,TGI,[58],> 100 µM
Cc1cc([N+](=O)[O-])c(C)c(Br)c1C,TGI,[1],> 100 µM
same,TGI,[2],> 100 µM
same,TGI,[3],> 100 µM
same,TGI,[4],> 100 µM
same,TGI,[5],> 100 µM
same,TGI,[7],> 100 µM
same,TGI,[8],> 100 µM
same,TGI,[9],> 100 µM
same,TGI,[11],> 100 µM
same,TGI,[12],> 100 µM
same,TGI,[13],> 100 µM
same,TGI,[14],> 100 µM
same,TGI,[15],> 100 µM
same,TGI,[16],> 100 µM
same,TGI,[17],> 100 µM
same,TGI,[19],> 100 µM
same,TGI,[20],> 100 µM
same,TGI,[21],> 100 µM
same,TGI,[22],> 100 µM
same,TGI,[23],> 100 µM
same,TGI,[24],> 100 µM
same,TGI,[25],> 100 µM
same,TGI,[26],> 100 µM
same,TGI,[27],> 100 µM
same,TGI,[28],> 100 µM
same,TGI,[29],> 100 µM
same,TGI,[30],> 100 µM
same,TGI,[31],> 100 µM
same,TGI,[32],> 100 µM
same,TGI,[33],> 100 µM
same,TGI,[34],> 100 µM
same,TGI,[35],> 100 µM
same,TGI,[36],> 100 µM
same,TGI,[38],> 100 µM
same,TGI,[39],> 100 µM
same,TGI,[40],> 100 µM
same,TGI,[41],> 100 µM
same,TGI,[42],> 100 µM
same,TGI,[43],> 100 µM
same,TGI,[44],> 100 µM
same,TGI,[45],> 100 µM
same,TGI,[46],> 100 µM
same,TGI,[47],> 100 µM
same,TGI,[48],> 100 µM
same,TGI,[49],> 100 µM
same,TGI,[50],> 100 µM
same,TGI,[51],> 100 µM
same,TGI,[52],> 100 µM
same,TGI,[53],> 100 µM
same,TGI,[55],> 100 µM
same,TGI,[56],> 100 µM
same,TGI,[57],> 100 µM
same,TGI,[58],> 100 µM
